Assay results published in patent US8178534B2, “cMET inhibitors” (Takeda Pharmaceutical Company Limited, priority 2008, dated 2012).
Counter-ions that a name gives are not always drawn.

Legend:
A549 = experiment: Inhibition of cell viability (MTS), A549 (negative control line); assay type: cell-based; conditions: A549 cells (negative control), 96 hours incubation
Procedure: (§1) Cells were maintained at 37° C. in a humidified atmosphere containing 5%-8% CO2 following the instructions of the supplier (American Type Culture Collection (Rockville, Md.)). Inhibition of cell viability was determined for a panel of tumor cell lines (MKN45, EBC1 and A549), using the soluble tetrazolium salt, MTS (Promega, Madison, Wis.). Cells were seeded at 2,000-7,500 cells/well in 96-well tissue culture plates and were allowed to attach for approximately 24 hours prior to addition of compounds or DMSO vehicle. […] Cells were treated in duplicate with test compounds. Compounds were serially diluted (1:2.5) from column 1 to 11 and column 12 contained DMSO vehicle. Compounds were diluted into cell growth medium then compound solution was added to cells. Equal amounts of DMSO were added to cells (final concentration is 0.5%). After background correction and normalization against DMSO-treated cells, EC50 values were calculated using non-linear curve-fitting of the cell viability as a function of compound concentration. The MKN45 and EBC1 cell lines contain high levels of phospho-Met and are dependent on cMET for proliferation, whereas the A549 line is used as negative control.
(§2) EC50 values may be calculated by non-linear curve fitting of the compound concentrations and fluorescence intensities to the standard EC50 equation.

MKN45 = experiment: Inhibition of cell viability (MTS), MKN45; assay type: cell-based; conditions: 96 hours incubation
Procedure: as §1, §2

[1] = biological target: T1, cMET enzyme (amino acids 1023-1360) (Homo sapiens, UniProt P08581); experiment: Determination of inhibition of cMET (capillary electrophoresis, phosphorylated peptide product); assay type: biochemical; conditions: 1.2 nM cMET, 50 μM ATP, 2 μM FL-2 peptide, 2 hours room temperature
T1 construct: The cMET enzyme (amino acids 1023-1360) nominally at 24 μM was held at −80° C. until use; His tag (N, cleaved yes); made in house; host or cells: Sf9 cells
Procedure: The inhibitory property of a compound relative to cMET catalysis was determined by use of capillary electrophoresis with fluorescence quantification of a phosphorylated peptide product for cMET. The cMET enzyme (amino acids 1023-1360) nominally at 24 μM was held at −80° C. until use, in a buffer containing 25 mM Tris-HCl pH 8.5, 150 mM NaCl, 3 mM DTT and 10% glycerol. […] Following purification, the tag was removed and enzyme concentrated. […] To activate the enzyme fully, frozen cMET was thawed quickly and activated with the addition of assay buffer (50 mM HEPES pH 7.5, 10 mM NaCl, 10 mM MgCl2, 0.01% Brij® 35), 1.25 mM ATP, 5 mM MgCl2 and 5 mM DTT at a cMET concentration of 2.4 μM followed by a 30 minute incubation at room temperature. […] Next, cMET enzyme (1.2 nM final) was added and the system incubated at room temperature for 20 minutes. Catalysis was initiated by the addition of ATP (50 μM final). Assays were incubated at room temperature for 2 hours then quenched by the addition of EDTA. Phosphorylated peptide product was quantified by monitoring fluorescence during capillary electrophoresis with Caliper LifeSciences LabChip 3000 under the following settings: base pressure=−0.1 psi, screen pressure=−1.2 psi, downstream voltage=−500 V, upstream voltage=−2300 V, chip type=TC372. The elution buffer was identical to the assay buffer except for the absence of DTT, FL-2 and ATP and the addition of 0.1% coating reagent (Caliper). […] Peak height was quantified and used to determine enzyme velocities.
IC50 values were calculated by non-linear least squares curve fitting of the standard IC50 equation to background-corrected cMET velocity versus compound concentration.

EBC1 = experiment: Inhibition of cell viability (MTS), EBC1; assay type: cell-based; conditions: Homo sapiens, 96 hours incubation
Procedure: as §1, §2

[2] = Homo sapiens, MKN-45, 96 h, MKN45 cells

T1 sequence (P08581 1023-1360): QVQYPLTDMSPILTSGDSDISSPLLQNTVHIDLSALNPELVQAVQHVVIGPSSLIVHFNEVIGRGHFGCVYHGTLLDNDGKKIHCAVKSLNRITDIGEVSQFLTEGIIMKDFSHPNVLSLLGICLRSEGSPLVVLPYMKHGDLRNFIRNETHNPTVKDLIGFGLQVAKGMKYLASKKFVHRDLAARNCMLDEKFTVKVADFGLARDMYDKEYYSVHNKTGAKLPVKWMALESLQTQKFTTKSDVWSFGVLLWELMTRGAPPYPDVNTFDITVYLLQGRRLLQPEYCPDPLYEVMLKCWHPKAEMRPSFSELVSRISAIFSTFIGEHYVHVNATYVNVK

EC50 (A549; Homo sapiens, A549, 96 h)	EC50 (MKN45; [2])	IC50 [1]	SMILES	EC50 (EBC1; EBC-1, 96 h, EBC1 cells)	further results
> 50 µM	8000 to 25000 nM	30 to 59 nM	N#Cc1cc(-c2ccc3nnc(Sc4ccc5nc(NC(=O)C6CC6)cn5n4)n3c2)cnc1O [Compound 108, N-(6-(6-(5-cyano-6-hydroxypyridin-3-yl)-[1,2,4]triazolo[4,3-a]pyridin-3-ylthio)imidazo[1,2-b]pyridazin-2-yl)cyclopropanecarboxamide]	8000 to 25000 nM	
		30 to 59 nM	Cn1cc(-c2ccc3nnn(Cc4ccc5nc(NC(=O)C6CC6)cn5n4)c3c2)cn1 [13 (HCl Salt), N-(6-((6-(1-methyl-1H-pyrazol-4-yl)-1H-benzo[d][1,2,3]triazol-1-yl)methyl)imidazo[1,2-b]pyridazin-2-yl)cyclopropanecarboxamide]	< 35 nM	EC50 (A549): 8 to 25 µM; EC50 (MKN45; MKN45 cells): 100 to 249 nM
8 to 25 µM	< 100 nM	< 30 nM	C=C(C)c1ccc2nnc(Sc3ccc4nc(NC(=O)C5CC5)cn4n3)n2c1 [Compound 25, N-(6-(6-(prop-1-en-2-yl)-[1,2,4]triazolo[4,3-a]pyridin-3-ylthio)imidazo[1,2-b]pyridazin-2-yl)cyclopropanecarboxamide]	< 35 nM	
		< 30 nM	CCn1cc(-c2ccc3nnc(Sc4ccc5nc(NC(=O)C6CC6)cn5n4)n3c2)ccc1=O [Compound 106, N-(6-(6-(1-ethyl-6-oxo-1,6-dihydropyridin-3-yl)-[1,2,4]triazolo[4,3-a]pyridin-3-ylthio)imidazo[1,2-b]pyridazin-2-yl)cyclopropanecarboxamide]		
> 50 µM	< 30 nM	< 30 nM	N#Cc1cccc(-c2ccc3nnc(C(F)(F)c4ccc5nc(NC(=O)C6CC6)cn5n4)n3c2)c1 [Compound 82, N-(6-((6-(3-cyanophenyl)-[1,2,4]triazolo[4,3-a]pyridin-3-yl)difluoromethyl)imidazo[1,2-b]pyridazin-2-yl)cyclopropanecarboxamide]	< 30 nM	
> 50 µM	100 to 249 nM	< 30 nM	CC(c1ccc2nc(NC(=O)C3CC3)cn2n1)c1nnc2ccc(-c3ccc(C(N)=O)cc3)cn12 (stereo not drawn) [Compound 67, 4-(3-(1-(2-(cyclopropanecarboxamido)imidazo[1,2-b]pyridazin-6-yl)ethyl)-[1,2,4]triazolo[4,3-a]pyridin-6-yl)benzamide]	60 to 100 nM	
> 50 µM	< 30 nM	30 to 59 nM	O=C(Nc1cn2nc(C(F)(F)c3nnc4ccc(-c5cccnc5)cn34)ccc2n1)C1CC1 [Compound 78, N-(6-(difluoro(6-(pyridin-3-yl)-[1,2,4]triazolo[4,3-a]pyridin-3-yl)methyl)imidazo[1,2-b]pyridazin-2-yl)cyclopropanecarboxamide]	< 30 nM	
		< 30 nM	NC(=O)c1ccc(-c2ccc3nnc(C(F)(F)c4ccc5nc(NC(=O)C6CC6)cn5n4)n3c2)cc1 [Compound 89, 4-(3-((2-(cyclopropanecarboxamido)imidazo[1,2-b]pyridazin-6-yl)difluoromethyl)-[1,2,4]triazolo[4,3-a]pyridin-6-yl)benzamide]		
> 50 µM	< 30 nM	< 30 nM	CS(=O)(=O)c1cccc(-c2ccc3nnc(C(F)(F)c4ccc5nc(NC(=O)C6CC6)cn5n4)n3c2)c1 [Compound 88, N-(6-(difluoro(6-(3-(methylsulfonyl)phenyl)-[1,2,4]triazolo[4,3-a]pyridin-3-yl)methyl)imidazo[1,2-b]pyridazin-2-yl)cyclopropanecarboxamide]	< 30 nM	
> 50 µM	< 30 nM	30 to 59 nM	CC(C)c1ccc(-c2ccc3nnc(C(F)(F)c4ccc5nc(NC(=O)C6CC6)cn5n4)n3c2)cc1 [Compound 80, N-(6-(difluoro(6-(4-isopropylphenyl)-[1,2,4]triazolo[4,3-a]pyridin-3-yl)methyl)imidazo[1,2-b]pyridazin-2-yl)cyclopropanecarboxamide]	30 to 59 nM	
> 50 µM	< 30 nM	60 to 100 nM	O=C(Nc1cn2nc(C(F)(F)c3nnc4ccc(-c5ccncc5)cn34)ccc2n1)C1CC1 [Compound 79, N-(6-(difluoro(6-(pyridin-4-yl)-[1,2,4]triazolo[4,3-a]pyridin-3-yl)methyl)imidazo[1,2-b]pyridazin-2-yl)cyclopropanecarboxamide]	< 30 nM	
		250 to 630 nM	Cc1c(F)ccc2nnc(Sc3ccc4nc(NC(=O)C5CC5)cn4n3)n12 [Compound 113, N-(6-(6-fluoro-5-methyl-[1,2,4]triazolo[4,3-a]pyridin-3-ylthio)imidazo[1,2-b]pyridazin-2-yl)cyclopropanecarboxamide]		
		> 100 nM	O=C(Nc1cn2cc(Cn3nnc4cccnc43)ccc2n1)C(F)(F)F [Compound 1, N-(6-((3H-[1,2,3]triazolo[4,5-b]pyridin-3-yl)methyl)imidazo[1,2-a]pyridin-2-yl)-2,2,2-trifluoroacetamide]		
		100 to 249 nM	COCCOCc1ccc2nnc(Sc3ccc4nc(NC(=O)C5CC5)cn4n3)n2c1 [Compound 112, N-(6-(6-((2-methoxyethoxy)methyl)-[1,2,4]triazolo[4,3-a]pyridin-3-ylthio)imidazo[1,2-b]pyridazin-2-yl)cyclopropanecarboxamide]		
		< 30 nM	Cn1cc(-c2ccc3nnc(Sc4ccc5nc(NC(=O)C6CC6)cn5n4)n3c2)ccc1=O [Compound 105, N-(6-(6-(1-methyl-6-oxo-1,6-dihydropyridin-3-yl)-[1,2,4]triazolo[4,3-a]pyridin-3-ylthio)imidazo[1,2-b]pyridazin-2-yl)cyclopropanecarboxamide]		
		30 to 59 nM	Cn1cc(-c2ccc3nnc(C(F)(F)c4ccc5nc(NC(=O)C6CC6)cn5n4)n3c2)cn1 [45 (TFA Salt), N-(6-(difluoro(6-(1-methyl-1H-pyrazol-4-yl)-[1,2,4]triazolo[4,3-a]pyridin-3-yl)methyl)imidazo[1,2-b]pyridazin-2-yl)cyclopropanecarboxamide]		
		> 100 nM	Cc1ccn2c(Sc3ccc4nc(NC(=O)C5CC5)cn4n3)nnc2c1 [Compound 43, N-(6-(7-methyl-[1,2,4]triazolo[4,3-a]pyridin-3-ylthio)imidazo[1,2-b]pyridazin-2-yl)cyclopropanecarboxamide]		
		250 to 630 nM	Cc1ccncc1-c1ccc2nnc(C(F)(F)c3ccc4nc(NC(=O)C5CC5)cn4n3)n2c1 [Compound 94, N-(6-(difluoro(6-(4-methylpyridin-3-yl)-[1,2,4]triazolo[4,3-a]pyridin-3-yl)methyl)imidazo[1,2-b]pyridazin-2-yl)cyclopropanecarboxamide]		
		< 30 nM	CNC(=O)c1ccc(-c2ccc3nnc(C(F)(F)c4ccc5nc(NC(=O)C6CC6)cn5n4)n3c2)cc1 [Compound 95, 4-(3-((2-(cyclopropanecarboxamido)imidazo[1,2-b]pyridazin-6-yl)difluoromethyl)-[1,2,4]triazolo[4,3-a]pyridin-6-yl)-N-methylbenzamide]		
		> 100 nM	O=C(Nc1cn2cc(Cn3nnc4ncccc43)ccc2n1)C(F)(F)F [Compound 2, N-(6-((1H-[1,2,3]triazolo[4,5-b]pyridin-1-yl)methyl)imidazo-[1,2-a]pyridin-2-yl)-2,2,2-trifluoroacetamide]		

SMILES	EC50 (A549; Homo sapiens, A549, 96 h)	EC50 (MKN45; [2])	IC50 [1]	EC50 (EBC1; EBC-1, 96 h, EBC1 cells)	further results
COCCOCn1cc(-c2ccc3nnc(Sc4ccc5nc(NC(=O)C6CC6)cn5n4)n3c2)cn1 [Compound 29, N-(6-(6-(1-((2-methoxyethoxy)methyl)-1H-pyrazol-4-yl)-[1,2,4]triazolo[4,3-a]pyridin-3-ylthio)imidazo[1,2-b]pyridazin-2-yl)cyclopropanecarboxamide]			60 to 100 nM		EC50 (A549; Homo sapiens): > 50 µM; EC50 (MKN45; Homo sapiens, MKN-45, MKN45 cells): < 100 nM; EC50 (EBC1; EBC-1, EBC1 cells): 35 to 99 nM
